This is an account of results in ChEMBL document CHEMBL4402585 (J Med Chem, 2020).

The structures appear in SMILES notation. The source made the active and inactive calls.

The target of series [1] is T1, Bromodomain-containing protein 4 (Homo sapiens, UniProt O60885). As to the kind of experiment: Inhibition of BRD4 (unknown origin).
For series [2], the target named is Histone acetyltransferase p300 (Homo sapiens, UniProt Q09472). The series is described as follows: Inhibition of MSGRGK(Ac)-GGK(Ac)GLGK(Ac)GGAKRHR-biotin binding to EP300 (1040 to 1160 residues) (unknown origin) expressed in Escherichia coli BL21 (DE3) by Alphascreen assay. (In general: Bead proximity is the source of the signal in Alpha formats.)
Histone acetyltransferase p300, sequence (Q09472 whole entry, the tested form may be a part): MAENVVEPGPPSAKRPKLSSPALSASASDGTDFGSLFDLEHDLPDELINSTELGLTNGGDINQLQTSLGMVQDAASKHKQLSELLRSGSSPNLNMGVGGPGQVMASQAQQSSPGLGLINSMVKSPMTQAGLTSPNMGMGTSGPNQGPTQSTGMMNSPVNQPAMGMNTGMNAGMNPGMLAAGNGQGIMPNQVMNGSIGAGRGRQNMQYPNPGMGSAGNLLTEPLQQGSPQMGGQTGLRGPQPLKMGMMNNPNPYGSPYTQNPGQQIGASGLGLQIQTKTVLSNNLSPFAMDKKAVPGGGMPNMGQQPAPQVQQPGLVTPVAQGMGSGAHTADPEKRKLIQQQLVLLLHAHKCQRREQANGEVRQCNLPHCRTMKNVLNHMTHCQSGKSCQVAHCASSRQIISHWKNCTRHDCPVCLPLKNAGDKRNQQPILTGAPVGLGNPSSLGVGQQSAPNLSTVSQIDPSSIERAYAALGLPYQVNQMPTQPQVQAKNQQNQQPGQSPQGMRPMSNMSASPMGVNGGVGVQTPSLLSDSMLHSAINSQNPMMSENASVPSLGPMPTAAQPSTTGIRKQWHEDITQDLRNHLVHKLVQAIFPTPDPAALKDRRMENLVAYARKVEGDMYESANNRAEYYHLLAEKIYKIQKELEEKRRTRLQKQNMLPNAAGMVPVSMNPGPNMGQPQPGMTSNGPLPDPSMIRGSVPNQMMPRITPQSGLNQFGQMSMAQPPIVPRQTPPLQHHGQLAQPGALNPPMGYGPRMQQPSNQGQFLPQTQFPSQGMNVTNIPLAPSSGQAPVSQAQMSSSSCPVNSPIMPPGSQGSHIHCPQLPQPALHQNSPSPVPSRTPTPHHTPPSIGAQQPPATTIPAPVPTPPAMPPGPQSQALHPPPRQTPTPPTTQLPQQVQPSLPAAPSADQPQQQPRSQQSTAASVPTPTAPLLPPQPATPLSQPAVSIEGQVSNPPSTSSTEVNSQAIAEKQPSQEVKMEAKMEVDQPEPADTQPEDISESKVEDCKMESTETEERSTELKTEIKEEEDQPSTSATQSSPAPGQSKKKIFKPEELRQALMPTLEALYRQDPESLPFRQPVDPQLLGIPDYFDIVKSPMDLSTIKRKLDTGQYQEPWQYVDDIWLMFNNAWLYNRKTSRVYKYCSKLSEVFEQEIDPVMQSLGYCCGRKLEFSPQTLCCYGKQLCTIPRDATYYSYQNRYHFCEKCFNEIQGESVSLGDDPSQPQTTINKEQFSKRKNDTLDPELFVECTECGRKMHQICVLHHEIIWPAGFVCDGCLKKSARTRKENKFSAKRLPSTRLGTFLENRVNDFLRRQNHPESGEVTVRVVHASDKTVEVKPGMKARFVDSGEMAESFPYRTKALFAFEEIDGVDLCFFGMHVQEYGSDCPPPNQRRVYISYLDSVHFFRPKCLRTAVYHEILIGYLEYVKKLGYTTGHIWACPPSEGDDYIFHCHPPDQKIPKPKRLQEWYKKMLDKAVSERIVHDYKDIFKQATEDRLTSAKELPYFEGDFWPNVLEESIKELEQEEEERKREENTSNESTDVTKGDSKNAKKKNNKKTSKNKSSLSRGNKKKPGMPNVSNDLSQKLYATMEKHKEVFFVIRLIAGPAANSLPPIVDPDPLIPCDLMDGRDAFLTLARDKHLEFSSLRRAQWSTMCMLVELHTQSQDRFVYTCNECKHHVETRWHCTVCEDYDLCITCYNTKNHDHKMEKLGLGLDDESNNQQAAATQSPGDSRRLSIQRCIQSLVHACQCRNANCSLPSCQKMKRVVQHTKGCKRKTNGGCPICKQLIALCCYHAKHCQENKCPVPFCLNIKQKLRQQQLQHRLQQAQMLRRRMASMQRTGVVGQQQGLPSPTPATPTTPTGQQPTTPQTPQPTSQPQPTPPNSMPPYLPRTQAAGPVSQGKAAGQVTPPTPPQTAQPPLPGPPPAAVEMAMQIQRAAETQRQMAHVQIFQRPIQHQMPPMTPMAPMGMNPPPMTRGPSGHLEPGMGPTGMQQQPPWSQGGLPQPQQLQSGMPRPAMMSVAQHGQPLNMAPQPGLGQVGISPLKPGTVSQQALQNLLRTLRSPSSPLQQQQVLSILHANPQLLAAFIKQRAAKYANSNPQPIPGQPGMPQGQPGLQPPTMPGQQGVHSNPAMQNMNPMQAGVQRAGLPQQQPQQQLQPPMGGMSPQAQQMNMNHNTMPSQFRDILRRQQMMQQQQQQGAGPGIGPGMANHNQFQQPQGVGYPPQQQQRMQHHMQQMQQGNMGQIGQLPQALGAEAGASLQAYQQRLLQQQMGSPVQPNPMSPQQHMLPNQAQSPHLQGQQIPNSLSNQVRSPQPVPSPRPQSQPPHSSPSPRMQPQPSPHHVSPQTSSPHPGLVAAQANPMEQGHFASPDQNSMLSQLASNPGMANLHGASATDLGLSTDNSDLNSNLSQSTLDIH
Series [3] relates to MV4-11. The series is described as follows: Antiproliferative activity against human MV4-11 cells assessed as reduction in cell viability measured after 72 hrs by Celltitre-glo luminescence assay. Format: functional, cell-based. To be noted: MV4-11, 72 h.
The test system of series [4] is Kasumi 1. The series is described as follows: Antiproliferative activity against human Kasumi-1 cells assessed as reduction in cell viability measured after 72 hrs by Celltitre-glo luminescence assay. Format: functional, cell-based. To be noted: Kasumi 1, 72 h.
Series [5] concerns MV4-11. The series is described as follows: Antitumor activity against human MV4-11 cells xenografted in mouse assessed as tumor growth inhibition at 50 mg/kg, po administered for 28 days and measured every 2 to 3 days during compound dosing relative to control. It is filed as functional. To be noted: MV4-11, po, read-out: TGI. (In general: In xenograft studies the graft and the host belong to different species.)

In series [6] the test system is RS4-11. The series is described as follows: Antiproliferative activity against human RS4:11 cells assessed as reduction in cell viability measured after 72 hrs by Celltitre-glo luminescence assay. The settings on record: RS4-11, 72 h. Format: functional, cell-based.
The subject of series [7] is MV4-11. As to the kind of experiment: Cell cycle arrest in human MV4-11 cells assessed as increase in accumulation at G1-phase at 125 nM measured after 24 hrs by propidium iodide staining based flow cytometry. Format: functional.
The test system of series [8] is MM1.S. The series is described as follows: Antiproliferative activity against human MM1S cells assessed as reduction in cell viability measured after 72 hrs by Celltitre-glo luminescence assay. Format: functional, cell-based.
Series [9] in a line: Clearance in Sprague-Dawley rat at 1 mg/kg, iv by LC-MS/MS analysis. The settings on record: in vivo. Format: ADME, organism-based.
A short description of series [10]: Volume of distribution at steady state in Sprague-Dawley rat at 1 mg/kg, iv by LC-MS/MS analysis. Format: ADME, organism-based. The settings on record: in vivo, read-out: Vdss.
The target of series [11] is T1, Bromodomain-containing protein 4. The series is described as follows: Inhibition of SGRG-K(Ac)-GG-K(Ac)-GLG-K(Ac)-GGA-K(Ac)-RHRKVGG-K-Biotin binding to N-terminal His6-tagged BRD4 bromodomain 1 (49 to 170 residues) (unknown origin) expressed in Escherichia coli BL21 (DE3) preincubated for 15 mins followed by biotin-labeled H4 peptide addition and measured after 10 mins by Alphascreen assay.

Series [12] can be described thus: Clearance in rat liver microsomes at 0.1 uM preincubated for 10 mins followed by NADPH addition and measured up to 60 mins by LC-MS/MS analysis. To be noted: 1 h. Format: ADME, Microsome.
Series [13] is described as follows: Clearance in human liver microsomes at 0.1 uM preincubated for 10 mins followed by NADPH addition and measured up to 60 mins by LC-MS/MS analysis. It is filed as ADME, Microsome. To be noted: 1 h. (In general: Microsomes from liver hold many membrane-bound enzymes, among them those of drug oxidation.)
A short description of series [14]: AUC (0 to t) in Sprague-Dawley rat at 1 mg/kg, iv by LC-MS/MS analysis. Format: ADME, organism-based. To be noted: in vivo.
Series [15] is described as follows: Clearance in mouse liver microsomes at 0.1 uM preincubated for 10 mins followed by NADPH addition and measured up to 60 mins by LC-MS/MS analysis. It is filed as ADME, Microsome. To be noted: 1 h.
A short description of series [16]: Half life in Sprague-Dawley rat at 1 mg/kg, iv by LC-MS/MS analysis. It is filed as ADME, organism-based. The settings on record: in vivo.
A short description of series [17]: Half life in Sprague-Dawley rat at 3 mg/kg, po by LC-MS/MS analysis. Format: ADME, organism-based. To be noted: in vivo.
Series [18] is described as follows: AUC (0 to t) in Sprague-Dawley rat at 3 mg/kg, po by LC-MS/MS analysis. To be noted: in vivo. It is filed as ADME, organism-based.
A short description of series [19]: Oral bioavailability in Sprague-Dawley rat at 3 mg/kg by LC-MS/MS analysis. To be noted: in vivo. It is filed as ADME, organism-based.
Series [20] is described as follows: Half life in rat liver microsomes at 0.1 uM preincubated for 10 mins followed by NADPH addition and measured up to 60 mins by LC-MS/MS analysis. It is filed as ADME, Microsome.
Series [21] concerns the target T1, Bromodomain-containing protein 4.
Description: Binding affinity to N-terminal His6-tagged BRD4 bromodomain 1 (49 to 170 residues) (unknown origin) expressed in Escherichia coli BL21 (DE3) assessed as change in melting temperature at 1:100 molar ratio by SYPRO orange dye based fluorescence thermal shift assay
Series [22] in a line: Half life in mouse liver microsomes at 0.1 uM preincubated for 10 mins followed by NADPH addition and measured up to 60 mins by LC-MS/MS analysis. It is filed as ADME, Microsome.
The nature of series [23]: Half life in human liver microsomes at 0.1 uM preincubated for 10 mins followed by NADPH addition and measured up to 60 mins by LC-MS/MS analysis. It is filed as ADME, Microsome.
Series [24] concerns the target T1, Bromodomain-containing protein 4. As to the kind of experiment: Inhibition of SGRG-K(Ac)-GG-K(Ac)-GLG-K(Ac)-GGA-K(Ac)-RHRKVGG-K-Biotin binding to N-terminal His6-tagged BRD4 bromodomain 2 (344 to 455 residues) (unknown origin) expressed in Escherichia coli BL21 (DE3) preincubated for 15 mins followed by biotin-labeled H4 peptide addition and measured after 10 mins by Alphascreen assay.

The nature of series [25]: Cmax in Sprague-Dawley rat at 3 mg/kg, po by LC-MS/MS analysis. It is filed as ADME, organism-based. Also noted: dose 3 mg/kg, route oral. The settings on record: in vivo.
In series [26] the target is T1, Bromodomain-containing protein 4. The series is described as follows: Inhibition of HSGRGK(Ac)GGK(Ac)GLGK(Ac)GGAK(Ac)RHRK(Biotin)-OH binding to recombinant human His6-tagged BRD4 bromodomain 1 expressed in Escherichia coli BL21 (DE3)-R3-pRARE2 cells preincubated for 30 mins followed by HSGRGK(Ac)GGK(Ac)GLGK(Ac)GGAK(Ac)RHRK(Biotin)-OH addition and measured after 30 mins by Alphascreen assay.

As a reminder, the IC50 is the concentration needed to halve the response being measured. In the case of `Cc1sc2c(c1C)C(c1ccc(Cl)cc1)=N[C@@H](CC(N)=O)c1nnc(C)n1-2`, the IC50 in series [1] lay within 0.092 to 0.112 µM.
Consider `Cc1sc2c(c1C)C(c1ccc(Cl)cc1)=N[C@@H](CC(=O)Nc1ccc(O)cc1)c1nnc(C)n1-2` [BIRABRESIB], for which the IC50 in [2] is more than 33 µM; in series [3], 0.0463 µM; in [4], 0.135 µM; in [6], 0.416 µM; in series [8], 0.137 µM. Further, the inhibition in vivo at 50 mg/kg in series [5] stood at 62.3%. In addition, the outcome in series [7] was Active.
The term clearance denotes the rate of elimination divided by the concentration. Lower therefore signals a low capacity for elimination. What is called AUC(0-t) is exposure summed from dosing to a finite time, without extrapolation to infinity. Lower therefore signals low exposure. As usually defined, the half-life is the time needed for the level to fall by half in the phase considered. A word on the bioavailability: it is the share of a dose that reaches the circulation, judged against a reference dose that is usually intravenous. Low readings indicate poor availability, high ones good availability. As a reminder, the ΔTm is the change in melting temperature against a reference sample. As a reminder, the Cmax is the highest concentration seen after dosing. In the case of `Cc1cc(-c2cc(CS(C)(=O)=O)cnc2Oc2ccc(F)cc2F)n2cc[nH]c(=O)c12`, in [9], the clearance amounted to 37.5 mL/min/kg. For the same molecule, the IC50 is 2.2 µM in series [2], 0.0074 µM in series [11], 0.0142 µM in [3] and 0.0035 µM in series [24]. In addition, the Vd in series [10] turned out to be 1.9 L/kg. This molecule gave an Intrinsic clearance in series [12] of 64.6 mL/min/g. The Microsomal intrinsic clearance in series [13] is 26.1 mL/min/g; in [15], 35.7 mL/min/g. Further, the AUC(0-t) was 457 ng·h/mL in [14] and 520 ng·h/mL in series [18]. Also, the half-life in [16] was 48 min; in [17] it was 90 min. In [19], this molecule registered a bioavailability of 37.9%. Moreover, the half-life at 0.1 µM in [20] is 32.5 min; in series [22], 58.5 min; in series [23], 80.4 min. The ΔTm in series [21] was more than 1 °C. The molecule also showed a Cmax in series [25] of 160 ng/mL.
For the molecule `CC(=O)C[C@@H]1N=C(c2ccc(Cl)cc2)c2c(sc(C)c2C)-n2c(C)nnc21`, the concentration for half-maximal inhibition (IC50) in series [26] worked out at 0.077 µM.
